Source: patent publication US11925637B2, “Phenylpiperazine proprotein convertase subtilisin/kexin type 9 (PCSK9) modulators and their use” (SRX Cardio, LLC, priority 2015, dated 2024)

Columns and labels:
[1] = target: T1, recombinant PCSK9 (Homo sapiens, UniProt Q8NBP7); test: DiI-LDL Uptake Assay (% inhibition of recombinant PCSK9); format: cell-based; settings: 2.5 ug/mL recombinant PCSK9, HepG2 cells (FIG. 1), read-out: Uptake Assay: % Inhibition of 2.5 ug/mL recombinant PCSK9 @ X compound dose; for inhibition at 10 µM: compound dose 10 uM; for inhibition at 20 µM: compound dose 20 uM; for inhibition at 5 µM: compound dose 5 uM; for inhibition at 1.25 µM: compound dose 1.25 uM; for inhibition at 2.5 µM: compound dose 2.5 uM
T1 sequence (Q8NBP7 153-692): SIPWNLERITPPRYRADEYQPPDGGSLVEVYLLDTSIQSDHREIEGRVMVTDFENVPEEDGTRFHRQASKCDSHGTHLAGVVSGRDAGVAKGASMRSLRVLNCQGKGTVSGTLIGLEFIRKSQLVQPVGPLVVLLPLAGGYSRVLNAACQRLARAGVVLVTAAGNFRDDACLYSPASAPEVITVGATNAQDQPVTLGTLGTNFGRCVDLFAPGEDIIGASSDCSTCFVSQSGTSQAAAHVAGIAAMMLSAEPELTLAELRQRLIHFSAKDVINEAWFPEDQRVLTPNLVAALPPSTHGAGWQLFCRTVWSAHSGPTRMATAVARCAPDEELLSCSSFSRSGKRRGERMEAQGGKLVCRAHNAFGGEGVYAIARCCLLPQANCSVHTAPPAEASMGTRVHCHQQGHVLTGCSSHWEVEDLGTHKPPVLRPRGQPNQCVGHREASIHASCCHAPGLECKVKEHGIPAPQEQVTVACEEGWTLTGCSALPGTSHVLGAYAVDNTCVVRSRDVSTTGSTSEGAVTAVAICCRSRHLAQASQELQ
Protocol: The cells were incubated in a 96-well plate for a total of 16 h in the absence or presence of recombinant PCSK9 (final concentration 2.5 ug/ml) protein alone or recombinant PCSK9 protein pre-mixed with indicated concentration of experimental compounds (Cmpd #). After 16 h, DiI-LDL (final concentration 5 ug/ml) was added to the incubation mixtures. After 4 h, cells are stained with Hoechst 33342 for 30 minutes, then rinsed with phosphate buffered saline, and then a final volume of 100 ul phosphate buffered saline was added to each well. The fluorescence was measured (DiI: excitation at 550 nm and emission at 590 nm; Hoechst: excitation at 355 nm, emission at 460 nm). The percent recombinant PCSK9 inhibition was calculated as [‘Compound Dose DiI Fluorescence’−‘2.5 ug/ml PCSK9-treated DiI Fluorescence’]/[‘No PCSK9 DiI Fluorescence’−‘2.5 ug/ml PCSK9-treated DiI Fluorescence’]×100%.
Cellular DiI-LDL uptake can be measured using protocols adapted from Benjannet et al., “Effects of the prosegment and pH on the activity of PCSK9: evidence for additional processing events” J Biol Chem. 285(52): 40965-40978 (2010) and “Composition and Methods of Use of Small Molecules as Binding Ligands for the Modulation of Proprotein Convertase Subtilisin/Kexin Type 9 (PCSK9) Protein Activity” (WO2016029037), which are incorporated by reference in their entirety.
Cells, such as HepG2, HuH7, FL83B, or a cell line transfected with a short-hairpin PCSK9 knockdown sequence such as HepG2/shPCSK9, HuH7/shPCSK9, or FL83B/shPCSK9 are plated and cultured at 37° C. for 12-24 h. Culture media is removed and replaced with fresh lipoprotein-depleted culture media supplemented with 5 ug/mL of DiI-LDL (Kalen Biomedical) or lipoprotein-depleted culture media supplemented with 5 ug/mL of DiI-LDL plus a predetermined concentration of recombinant PCSK9, for example a 10 nM final concentration of PCSK9. Lipoprotein-depleted culture media can be composed of DMEM (Invitrogen) with 10% lipoprotein-depleted fetal bovine serum (Kalen Biomedical) and supplemented with penicillin-streptomycin (Life Technologies). Cells are dosed with small molecule test compounds at doses ranging from 0 nM to 100 uM.
Following an incubation period of specified length, such as 6 hours, Hoechst 33342 (AnaSpec) stain is added to the cell media per manufacturer's instructions and incubated for a specified length (e.g., 30 minutes). The lipoprotein-depleted media is removed and cells rinsed three times with phosphate buffered saline. A final volume of phosphate buffered saline is added back to the wells. The DiI fluorescence is measured with a plate reader using an exciting wavelength of 550 nm and the resulting emission at 590 nm is measured. The Hoechst stain fluorescence is measured with a plate reader using an exciting wavelength of 355 nm and the resulting emission at 460 nm is measured.
Cells are analyzed by for both Hoechst stain (DNA content) and DiI-LDL fluorescence. Cells incubated with small molecule compounds that are inhibitors of PCSK9 will be expected to show increased amounts of DiI-LDL fluorescence, relative to control (no compound) specimens, and cells incubated with small molecule compounds that are activators of PCSK9 will be expected to show decreased amounts of DiI-LDL fluorescence relative to control (no compound) specimens.

[2] = target: T1, recombinant PCSK9; test: LDLR Flow (FACS) Assay (% inhibition of recombinant PCSK9); format: cell-based; settings: 5.0 ug/mL recombinant PCSK9, HuH7 cells (FIG. 2), read-out: LDLR Flow Assay: % Inhibition of 5.0 ug/mL recombinant PCSK9 @ X compound dose; for inhibition at 1.25 µM: Huh-7, compound dose 1.25 uM; for inhibition at 10 µM: Huh-7, compound dose 10 uM; for inhibition at 0.313 µM: Huh-7, compound dose 0.313 uM; for inhibition at 20 µM: Huh-7, compound dose 20 uM
Protocol: The cells were incubated in 24-well plates for a total of 6 h in the absence or presence of recombinant PCSK9 protein (final concentration of 5.0 ug/ml), or in the presence of PCSK9 protein mixed with indicated concentration of experimental compound (Cmpd #). After 6 hours, the cells were released from the plate, stained with anti-LDLR antibody, then rinsed, counterstained with DAPI, and then measured by fluorescence activated cell sorting (FACS). The percent recombinant PCSK9 inhibition was calculated as [‘Compound Dose LDLR Fluorescence’−‘5.0 ug/ml PCSK9-treated LDLR Fluorescence’]/[‘No PCSK9 Basal LDLR Fluorescence’−‘5.0 ug/ml PCSK9-treated LDLR Fluorescence’]×100%.
LDLR levels can be measured using flow cytometry or fluorescence activated cell sorting (FACS) using protocols adapted from Benjannet et al., “Effects of the prosegment and pH on the activity of PCSK9: evidence for additional processing events” J Biol Chem. 285(52): 40965-40978 (2010) and “Composition and Methods of Use of Small Molecules as Binding Ligands for the Modulation of Proprotein Convertase Subtilisin/Kexin Type 9 (PCSK9) Protein Activity” (WO2016029037), which are incorporated by reference in their entirety.
Cells, such as HepG2, HuH7, FL83B, or a cell line transfected with a short-hairpin PCSK9 knockdown sequence such as HepG2/shPCSK9, HuH7/shPCSK9, or FL83B/shPCSK9 are plated and cultured at 37° C. for 12-24 h. Culture media is removed and replaced with fresh culture media or culture media plus a predetermined amount of recombinant PCSK9, for example a 10 nM final concentration of PCSK9. Cell culture media can be composed of DMEM (Invitrogen) with 10% fetal bovine serum (Life Technologies) supplemented with penicillin-streptomycin (Life Technologies). Cells are dosed with small molecule test compounds at doses ranging from 0 nM to 100 uM
Following an incubation period of specified length, such as 6 hours, the media is removed and the cells are rinsed three times with a rinse solution (i.e., Dulbecco's phosphate buffered saline (D-PBS, Life Technologies) supplemented with 0.5% bovine serum albumin (BSA, Sigma) and 1 g/L glucose (Sigma)). The fluid is then removed, and cells are released from the plate using TrypLE Express (Life Technologies) per manufacturer's recommend procedures, such as incubation for 5-10 minutes at 37° C. The TyrpLE-Cell suspension is then transferred to 15 mL conical tubes, volume is increased to 2 mL with D-PBS supplemented with 0.5% BSA and […] glucose, and the tubes are centrifuged at 250× gravity for 10 minutes. Following centrifugation, the supernatant is aspirated and the cell pellet is resuspended in 100 uL D-PBS containing 0.5% BSA and […] glucose, and cells are labeled with anti-LDLR antibody per the manufacturer's recommended procedure. The cells are then pelleted by centrifugation, resuspended in 300 uL PBS and counterstained with 4′,6-Diamidino-2-phenylindole (DAPI, Cayman Chemical) as a cell viability marker, other cell viability markers such as 7-aminoactinomycin D (7AAD, Life Technologies) have also been described in the art.
Cells are analyzed for both cell viability marker (dead cells) and LDLR in live cells using a flow cytometer per the manufacturer's operating manual. Cells incubated with small molecule compounds that are inhibitors of PCSK9 will be expected to show increased amounts of LDLR, relative to control (no compound) specimens, and cells incubated with small molecule compounds that are activators of PCSK9 will be expected to show decreased amounts of LDLR relative to control (no compound) specimens.

c1ccc(COc2ccc(N3CCNCC3)cc2)cc1 [Compound 1, 1-(4-(benzyloxy)phenyl)piperazine]
inhibition at 10 µM [1]: > 100% | inhibition at 1.25 µM [2]: ~16% | inhibition at 10 µM [2]: ~34%

O=S(=O)(c1ccccc1)c1ccc(N2CCNCC2)c(F)c1 [Compound 2, 1-(2-fluoro-4-(phenylsulfonyl)phenyl)piperazine]
inhibition at 20 µM [1]: > 100% | inhibition at 1.25 µM [2]: ~45% | inhibition at 5 µM ([2]; Huh-7, compound dose 5 uM): ~66%

c1ccc(Oc2ccc(N3CCNCC3)cc2)cc1 [Compound 3]
inhibition at 10 µM [1]: > 100% | inhibition at 1.25 µM [2]: ~20% | inhibition at 10 µM [2]: ~30%

Oc1cc(Oc2ccc(N3CCNCC3)cc2)ncn1 [Compound 4, 6-(4-(piperazin-1-yl)phenoxy)pyrimidin-4-ol]
inhibition at 0.313 µM [2]: ~19% | inhibition at 1.25 µM [2]: ~30%

O=S(=O)(c1ccc(N2CCNCC2)cc1)N1CCCC1 [Compound 5, 1-(4-(pyrrolidin-1-ylsulfonyl)phenyl)piperazine]
inhibition at 1.25 µM [2]: ~10% | inhibition at 10 µM [2]: ~20%

Fc1ccc(Cc2ccc(N3CCNCC3)cc2)cc1 [Compound 6, 1-(4-(4-fluorobenzyl)phenyl)piperazine]
inhibition at 5 µM [1]: > 100% | inhibition at 1.25 µM [2]: ~15% | inhibition at 10 µM [2]: ~40%

O=C1CNCCN1c1ccc(Oc2ccccc2)cc1 [Compound 7, 1-(4-phenoxyphenyl)piperazin-2-one]
inhibition at 1.25 µM [2]: ~18%

c1cc(C2CCNCC2)ccc1OC1CCCCC1 [Compound 8, 4-(4-(cyclohexyloxy)phenyl)piperidine]
inhibition at 5 µM [1]: > 100% | inhibition at 0.313 µM [2]: ~15% | inhibition at 1.25 µM [2]: ~25% | inhibition at 10 µM [2]: ~35%

c1cc(C2CCNCC2)ccc1OC1CCOCC1 [Compound 9, 4-(4-((tetrahydro-2H-pyran-4-yl)oxy)phenyl)piperidine]
inhibition at 20 µM [2]: ~23%

O=S(=O)(Nc1ccccc1)c1ccc(N2CCNCC2)cc1 [Compound 10, N-phenyl-4-(piperazin-1-yl)benzenesulfonamide]
inhibition at 20 µM [1]: > 100% | inhibition at 1.25 µM [2]: > 10% | inhibition at 10 µM [2]: > 25% | inhibition at 20 µM [2]: > 40%

O=C(Nc1ccccc1)c1ccc(N2CCNCC2)cc1 [Compound 11, N-phenyl-4-(piperazin-1-yl)benzamide]
inhibition at 20 µM [1]: ~49%

O=S(=O)(Nc1ccc2c(c1)CCCC2)c1ccc(N2CCNCC2)cc1 [Compound 12, 4-(piperazin-1-yl)-N-(5,6,7,8-tetrahydronaphthalen-2-yl)benzenesulfonamide]
inhibition at 1.25 µM [1]: ~66% | inhibition at 2.5 µM [1]: > 100% | inhibition at 1.25 µM [2]: ~10% | inhibition at 10 µM [2]: ~25% | inhibition at 20 µM [2]: ~45%

c1cc(N2CCNCC2)ccc1OC1CCCCC1 [Compound 13, 1-(4-(cyclohexyloxy)phenyl)piperazine]
inhibition at 20 µM [1]: > 100% | inhibition at 0.625 µM ([2]; Huh-7, compound dose 0.625 uM): ~20% | inhibition at 10 µM [2]: ~40%

O=S(=O)(Nc1ccccc1)c1ccc(C2CCNCC2)cc1 [Compound 14, N-phenyl-4-(piperidin-4-yl)benzenesulfonamide]
inhibition at 20 µM [1]: > 100%

O=S(=O)(Nc1ccc2c(c1)CCCC2)c1ccc(C2CCNCC2)cc1 [Compound 15, 4-(piperidin-4-yl)-N-(5,6,7,8-tetrahydronaphthalen-2-yl)benzenesulfonamide]
inhibition at 1.25 µM [1]: > 50% | inhibition at 2.5 µM [1]: > 100%
